Data: US20170246311A1, “PEPTIDES FOR BINDING ALTERNATIVELY ACTIVATED MACROPHAGES” (University of Washington, priority 2016, published 2017)
Each block holds one molecule with its values, some of them ahead of it. Positions of bridges follow the written chain, without caps; N, C: chain ends. Non-standard residues stand in square brackets, D forms with d. Residues, ends and D or L forms follow the SMILES beside them. No end group written: not given here. *: point of attachment. Biotin = O=C1N[C@H]2[C@H](CS[C@H]2CCCCC(=O)*)N1; Phe(F5) = N[C@@H](Cc1c(F)c(F)c(F)c(F)c1F)C(=O)O

Assays:
[1] = Solubility of cyclized peptide analogs
macrophages = type: cell-based, mouse
[2] = target: M2pep receptor on M2 macrophages (identity unknown) (mouse); assay: flow cytometry on murine M2 macrophages, biotinylated peptide + streptavidin-FITC; apparent KD from half-maximal MFI
[3] = target: M2pep receptor on M2 macrophages (identity unknown) (mouse); assay: flow cytometry binding curves on murine M2 macrophages
[4] = target: M2pep receptor on M2 macrophages (identity unknown) (mouse); assay: flow cytometry on murine M2 macrophages; apparent KD

Molecule: DFBP-cyclized M2pep(RY)Biotin (peptide)
Kd [2]: 2.03 µM | fold enhancement of binding activity against DFBP-cyclized M2pepBiotin [3]: 4 fold

Molecule: YEQDPWGVKWWYGGGSKKK(Biotin)-NH2 [M2pepBiotin]
Kd [4]: 220 µM

Continued, in another order:

solubility (in words) [1]: less soluble than the FF-cyclized analog
Molecule: CC(C)[C@@H]1NC(=O)CNC(=O)[C@H](Cc2c[nH]c3ccccc23)NC(=O)[C@@H]2CCCN2C(=O)[C@H](CC(=O)O)NC(=O)[C@H](CCC(N)=O)NC(=O)[C@H](CCC(=O)O)NC(=O)[C@H](Cc2ccc(O)cc2)NC(=O)CNC(=O)[C@H](Cc2c(F)c(F)c(F)c(F)c2F)NC(=O)[C@H](Cc2c(F)c(F)c(F)c(F)c2F)NC(=O)[C@@H](N)CSSC[C@@H](C(=O)N[C@H](CCCCN)C(=O)N[C@H](CCCCN)C(=O)N[C@H](CCCCN)C(=O)N[C@@H](CCCCNC(=O)CCCC[C@@H]2SC[C@@H]3NC(=O)N[C@@H]32)C(N)=O)NC(=O)CNC(=O)[C@H](Cc2ccc(O)cc2)NC(=O)[C@H](Cc2c[nH]c3ccccc23)NC(=O)[C@H](Cc2ccc(O)cc2)NC(=O)[C@H](CCCNC(=N)N)NC1=O [F(F5)F(F5)-cyclized M2pep(RY)Biotin] (H-C[Phe(F5)][Phe(F5)]GYEQDPWGVRYWYGC[dK][dK][dK]K(Biotin)-NH2; disulfide 1-18)
toxicity to macrophages (macrophages): very toxic to macrophages even at low micromolar concentrations

solubility (in words) [1]: significantly reduces solubility
Molecule: CC(C)[C@@H]1NC(=O)CNC(=O)[C@H](Cc2c[nH]c3ccccc23)NC(=O)[C@@H]2CCCN2C(=O)[C@H](CC(=O)O)NC(=O)[C@H](CCC(N)=O)NC(=O)[C@H](CCC(=O)O)NC(=O)[C@H](Cc2ccc(O)cc2)NC(=O)CNC(=O)[C@H](Cc2ccccc2)NC(=O)[C@H](Cc2ccccc2)NC(=O)[C@@H](N)CSSC[C@@H](C(=O)N[C@H](CCCCN)C(=O)N[C@H](CCCCN)C(=O)N[C@H](CCCCN)C(=O)N[C@@H](CCCCNC(=O)CCCC[C@@H]2SC[C@@H]3NC(=O)N[C@@H]32)C(N)=O)NC(=O)CNC(=O)[C@H](Cc2ccc(O)cc2)NC(=O)[C@H](Cc2c[nH]c3ccccc23)NC(=O)[C@H](Cc2ccc(O)cc2)NC(=O)[C@H](CCCNC(=N)N)NC1=O [FF-cyclized M2pep(RY)Biotin] (H-CFFGYEQDPWGVRYWYGC[dK][dK][dK]K(Biotin)-NH2; disulfide 1-18)
